Molecular target: T1, α4β7 integrin (Homo sapiens, UniProt P13612+P26010)
T1 construct: a cell line RPMI-8866, which is known to express α4β7 integrin; endogenous in cells; host or cells: RPMI-8866 (human B cell line)
T1 sequence (P13612 34-1032): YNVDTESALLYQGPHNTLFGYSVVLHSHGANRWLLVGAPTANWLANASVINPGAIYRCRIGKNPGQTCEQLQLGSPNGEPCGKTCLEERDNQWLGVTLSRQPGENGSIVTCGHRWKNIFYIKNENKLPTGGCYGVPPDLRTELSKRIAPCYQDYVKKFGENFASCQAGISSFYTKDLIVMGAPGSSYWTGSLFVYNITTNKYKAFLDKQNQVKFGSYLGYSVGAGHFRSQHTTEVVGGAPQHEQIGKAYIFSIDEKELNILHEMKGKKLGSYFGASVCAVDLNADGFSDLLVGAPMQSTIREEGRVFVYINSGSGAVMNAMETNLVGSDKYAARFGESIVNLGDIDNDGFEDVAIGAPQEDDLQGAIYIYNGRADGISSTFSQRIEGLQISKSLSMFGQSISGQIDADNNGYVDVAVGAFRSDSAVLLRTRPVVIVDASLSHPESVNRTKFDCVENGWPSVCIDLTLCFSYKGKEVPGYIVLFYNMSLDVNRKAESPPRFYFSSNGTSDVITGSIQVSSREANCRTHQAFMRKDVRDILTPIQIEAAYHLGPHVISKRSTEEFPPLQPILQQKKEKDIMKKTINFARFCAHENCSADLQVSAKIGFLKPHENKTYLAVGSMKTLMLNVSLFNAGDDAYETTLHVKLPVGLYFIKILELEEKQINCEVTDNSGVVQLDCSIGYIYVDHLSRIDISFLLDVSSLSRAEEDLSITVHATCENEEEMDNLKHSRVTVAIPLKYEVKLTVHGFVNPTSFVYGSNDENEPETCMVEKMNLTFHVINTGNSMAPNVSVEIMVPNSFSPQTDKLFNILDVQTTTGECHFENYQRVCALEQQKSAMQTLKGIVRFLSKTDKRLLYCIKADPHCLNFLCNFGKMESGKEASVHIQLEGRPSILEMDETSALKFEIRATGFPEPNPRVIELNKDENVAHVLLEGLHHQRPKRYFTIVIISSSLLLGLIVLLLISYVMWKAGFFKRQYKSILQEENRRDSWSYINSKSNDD
T1 sequence (P26010 20-798): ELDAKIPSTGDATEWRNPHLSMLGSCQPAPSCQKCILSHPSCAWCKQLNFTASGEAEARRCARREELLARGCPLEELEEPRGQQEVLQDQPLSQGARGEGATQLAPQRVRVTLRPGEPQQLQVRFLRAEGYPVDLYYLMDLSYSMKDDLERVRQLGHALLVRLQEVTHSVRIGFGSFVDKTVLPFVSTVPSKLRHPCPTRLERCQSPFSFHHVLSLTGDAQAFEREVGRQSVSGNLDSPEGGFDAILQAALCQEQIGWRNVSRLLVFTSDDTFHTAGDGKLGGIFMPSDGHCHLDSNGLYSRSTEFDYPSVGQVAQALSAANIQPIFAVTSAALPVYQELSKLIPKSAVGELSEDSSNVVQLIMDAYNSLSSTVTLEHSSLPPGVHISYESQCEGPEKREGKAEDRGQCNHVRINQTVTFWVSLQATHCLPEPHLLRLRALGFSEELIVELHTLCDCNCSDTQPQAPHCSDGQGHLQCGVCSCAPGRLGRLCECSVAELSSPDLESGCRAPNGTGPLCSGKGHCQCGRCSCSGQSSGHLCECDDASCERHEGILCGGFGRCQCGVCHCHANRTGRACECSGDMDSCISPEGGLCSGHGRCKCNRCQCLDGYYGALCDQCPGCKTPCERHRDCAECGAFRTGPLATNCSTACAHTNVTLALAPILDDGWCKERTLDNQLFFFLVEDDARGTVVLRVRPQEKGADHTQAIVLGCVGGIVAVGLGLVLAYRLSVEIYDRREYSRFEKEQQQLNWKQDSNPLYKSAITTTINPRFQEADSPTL
Assay: MAdCAM-1/α4β7 integrin binding inhibitory activity evaluation test in presence of serum
Assay type: cell-based
Details: RPMI-8866 cells, recombinant mouse MAdCAM-1/Fc, 50% human serum; read-out: α4β7 Serum Added IC50
Protocol: (3) MAdCAM-1/α4β7 Integrin Binding Inhibitory Activity Evaluation Test in Presence of Serum (1)
Each test substance was measured in terms of an ability to inhibit the MAdCAM-1 binding of a human B cell line, namely, a cell line RPMI-8866, which is known to express α4β7 integrin.
A solution of recombinant mouse MAdCAM-1/Fc (R&D Systems, Inc.) (1 μg/mL) diluted with a buffer A (carbonate buffer, pH 9.6) was added in an amount of 50 μL/well to a 96-well microtiter plate, followed by incubation at 4° C. overnight. After the plate was washed with PBS once, 150 μL/well of Block Ace (Snow Brand Milk Products Co., Ltd.) was added, followed by incubation at room temperature for 2 hours. After removal, the plate was washed with PBS once.
Then, 100 μL of the RPMI-8866 cells (2×10^6 cells/mL) and 100 of the test substance at each of various concentrations diluted with a binding buffer (DMEM containing 40 mM HEPES, 0.2% BSA, and 4 mM MnCl2) were added to the plate coated with the MAdCAM-1/Fc (5×10^5 cells/well) such that 50% human serum was contained at the final concentration. Then, incubation was allowed to proceed at 30° C. for 15 to 60 minutes. After the cells were bound to the wells, the plate was washed with PBS to remove unbound cells. A buffer C (PBS containing 1.5% Triton X-100) was added in an amount 50 μL/well to the plate to lyse the bound RPMI-8866 cells. After 30 μL of a substrate buffer (Promega, CytoTox 96 Non-Radioactive Cytotoxicity Assay) was added to 30 μL of the cell lysate, a reaction was allowed to proceed at room temperature in the dark for 30 minutes. After 30 μL of a stop solution (Promega, CytoTox 96 Non-Radioactive Cytotoxicity Assay) was added to each, and then an absorbance at 490 nm was measured using a plate reader. The absorbance obtained here represents a detection result of an activity of lactate dehydrogenase (LDH) eluted in the supernatant of each well, that is, the absorbance is proportional to the number of RPMI-8866 cells bound to the MAdCAM-1 and thus remaining on the plate. The test was performed in duplicate. Provided that the absorbance of the well containing no test substance was 100%, a cell binding rate with the test substance at each of the various concentrations was figured out, and a concentration IC50 which brought about 50% binding inhibition was calculated.

Row | IC50 | SMILES
1 | 0.016 µM | CN1CCC(=O)N(c2ccc(C[C@H](NC(=O)c3cc(F)c(NS(=O)(=O)c4ccc(NC(=O)C(C)(C)C)cc4)cc3F)C(=O)O)cn2)C1=O [Compound A75, (2S)-2-[2,5-difluoro-4-[(4-pivalamidophenyl)sulfonamide]benzamido]-3-[6-(3-methyl-2,6-dioxotetrahydropyrimidin-1(2H)-yl)pyridin-3-yl]propanoic acid]
2 | 0.045 µM | Cc1c(C)n(C)c(=O)n(-c2ccc(C[C@H](NC(=O)c3cc(F)c(NS(=O)(=O)c4cccc(NC(=O)C(C)(C)C)c4)cc3F)C(=O)O)cc2)c1=O [Compound A49]
3 | 0.07 µM | Cn1c(=O)n(-c2ccc(C[C@H](NC(=O)c3cc(F)c(NS(=O)(=O)c4ccc(NC(=O)NC(C)(C)C)cc4)cc3F)C(=O)O)cc2)c(=O)c2ccncc21 [Compound A5]
4 | 0.043 µM | Cc1c(C)n(C)c(=O)n(-c2ccc(C[C@H](NC(=O)c3cc(F)c(NS(=O)(=O)c4ccc(NC(=O)C5(c6ccccc6)CC5)cc4)cc3F)C(=O)O)cc2)c1=O [Compound A30]
5 | 0.012 µM | Cc1cn(C)c(=O)n(-c2ccc(C[C@H](NC(=O)c3cc(F)c(NS(=O)(=O)c4ccc(NC(=O)C(C)(C)CO)cc4)cc3F)C(=O)O)cn2)c1=O [Compound A63]
6 | 0.0049 µM | Cn1c2c(c(=O)n(-c3ccc(C[C@H](NC(=O)c4cc(F)c(NS(=O)(=O)c5ccc(NC(=O)C(C)(C)C)cc5)cc4F)C(=O)O)cn3)c1=O)CCCC2 [Compound A52]
7 | 0.044 µM | COC1(C(=O)Nc2ccc(S(=O)(=O)Nc3cc(F)c(C(=O)N[C@@H](Cc4ccc(-n5c(=O)c6ccncc6n(C)c5=O)cc4)C(=O)O)cc3F)cc2)CC1 [Compound A16]
8 | 0.033 µM | Cc1cn(C)c(=O)n(-c2ccc(C[C@H](NC(=O)c3cc(F)c(NS(=O)(=O)c4ccc(NC(=O)C#CC(C)(C)C)cc4)cc3F)C(=O)O)cn2)c1=O [Compound A68]
9 | 0.043 µM | Cc1cn(C)c(=O)n(-c2ccc(C[C@H](NC(=O)c3cc(F)c(NS(=O)(=O)c4ccc(NC(=O)C(C)C)cc4)cc3F)C(=O)O)cn2)c1=O [Compound A71]
10 | 0.01 µM | Cn1c(=O)n(-c2ccc(C[C@H](NC(=O)c3cc(F)c(NS(=O)(=O)c4ccc(NC(=O)C(C)(C)C)cc4)cc3F)C(=O)O)cc2)c(=O)c2ccncc21 [Compound A1, (2S)-2-[[4-[[4-(2,2-dimethylpropanoylamino)phenyl]sulfonylamino]-2,5-difluoro-benzoyl]amino]-3-[4-(1-methyl-2,4-dioxo-pyrido[3,4-d]pyrimidin-3-yl)phenyl]propanoic acid]
11 | 0.0043 µM | Cn1c2c(c(=O)n(-c3ccc(C[C@H](NC(=O)c4cc(F)c(NS(=O)(=O)c5ccc(NC(=O)C(C)(C)C)cc5)cc4F)C(=O)O)cn3)c1=O)CCOC2 [Compound A40]
12 | 0.037 µM | Cc1cn(C)c(=O)n(-c2ccc(C[C@H](NC(=O)c3cc(F)c(NS(=O)(=O)c4ccc(NC(=O)C(C)(C)C)s4)cc3F)C(=O)O)cn2)c1=O [Compound A73]
13 | 0.032 µM | Cn1c(=O)n(-c2ccc(C[C@H](NC(=O)c3cc(F)c(NS(=O)(=O)c4ccc(NC(=O)C5(O)CC5)cc4)cc3F)C(=O)O)cc2)c(=O)c2ccncc21 [Compound A23]
14 | 0.0064 µM | Cn1c(=O)n(-c2ccc(C[C@H](NC(=O)c3cc(F)c(NS(=O)(=O)c4ccc(NC(=O)C(C)(C)C)cc4)cc3F)C(=O)O)cn2)c(=O)c2ccncc21 [Compound A26]
15 | 0.0026 µM | Cn1c2c(c(=O)n(-c3ccc(C[C@H](NC(=O)c4cc(F)c(NS(=O)(=O)c5ccc(NC(=O)C(C)(C)C)cc5)cc4F)C(=O)O)cn3)c1=O)COCC2 [Compound A44]
16 | 0.089 µM | Cn1ccc(=O)n(-c2ccc(C[C@H](NC(=O)c3cc(F)c(NS(=O)(=O)c4ccc(NC(=O)C5CCCC5)cc4)cc3F)C(=O)O)cn2)c1=O [Compound A64]
17 | 0.6 µM | Cc1c(C)n(C)c(=O)n(-c2ccc(C[C@H](NC(=O)c3cc(F)c(NS(=O)(=O)c4ccc(N(C)C(=O)C(C)(C)C)cc4)cc3F)C(=O)O)cc2)c1=O [Compound A35]
18 | 0.0098 µM | Cn1ccc(=O)n(-c2ccc(C[C@H](NC(=O)c3cc(F)c(NS(=O)(=O)c4ccc(NC(=O)C(C)(C)C)cc4)cc3F)C(=O)O)cc2)c1=O [Compound A42]
19 | 0.0017 µM | Cn1c2c(c(=O)n(-c3ccc(C[C@H](NC(=O)c4cc(F)c(NS(=O)(=O)c5ccc(NC(=O)C(C)(C)C)cc5)cc4F)C(=O)O)cc3)c1=O)COCC2 [Compound A33]
20 | 0.0044 µM | Cc1c(C)n(C)c(=O)n(-c2ccc(C[C@H](NC(=O)c3cc(F)c(NS(=O)(=O)c4ccc(NC(=O)C(C)(C)C)cc4)cc3F)C(=O)O)cn2)c1=O [Compound A28]
21 | 0.022 µM | Cn1ccc(=O)n(-c2ccc(C[C@H](NC(=O)c3cc(F)c(NS(=O)(=O)c4ccc(NC(=O)C(C)(C)CO)cc4)cc3F)C(=O)O)cn2)c1=O [Compound A62]
